Earlier results in US20100233259A1, “DOSAGE FORM OF ROPINIROLE” (priority 2008, published 2010).

Conditions: in vivo

CCCN(CCC)CCc1cccc2c1CC(=O)N2 [Ropinirole]
half life: 5 to 6 h
